Test results published in the NIST ThermoML archive (doi:10.1021/je060107n).

Assay: mn = molality of the nth substance listed, in mol/kg
Conditions: 101 kPa, Liquid; for speed of sound: Linear variable-path acoustic interferometer; for mass density: Pycnometric method; for viscosity: Capillary tube (Ostwald / Ubbelohde) method

O=[N+]([O-])[O-].O=[N+]([O-])[O-].[Mg+2] [magnesium nitrate] + O
Conditions | mass density [kg/m3] | speed of sound [m/s] | viscosity [mPa·s]
293.15 K, m1 = 2.131 | – | 1656.3 | –
293.15 K, m1 = 2.493 | – | 1682.1 | –
293.15 K, m1 = 2.793 | – | 1705.3 | –
293.15 K, m1 = 3.118 | – | 1728.1 | –
293.15 K, m1 = 3.17 | – | 1736.5 | –
293.15 K, m1 = 3.501 | – | 1755.4 | –
293.15 K, m1 = 3.757 | – | 1771.3 | –
293.15 K, m1 = 4.051 | – | 1787.5 | –
293.15 K, m1 = 4.285 | – | 1802.4 | –
293.15 K, m1 = 4.403 | – | 1809.3 | –
293.15 K, m1 = 4.883 | – | 1838.8 | –
295.75 K, m1 = 0.3405 | 1032.9 | – | –
296 K, m1 = 5.134 | 1404.4 | – | –
297.5 K, m1 = 3.501 | 1299.9 | – | –
297.65 K, m1 = 0.5931 | 1057.4 | – | –
297.85 K, m1 = 4.285 | 1350.5 | – | –
297.9 K, m1 = 3.17 | 1281.3 | – | –
298.1 K, m1 = 2.493 | 1225.2 | – | –
298.15 K, m1 = 0.0145 | – | 1498.3 | 0.9075
298.15 K, m1 = 0.0528 | – | 1500.5 | 0.9227
298.15 K, m1 = 0.2491 | – | 1514.9 | 0.9713
298.15 K, m1 = 0.3405 | – | 1519 | –
298.15 K, m1 = 0.5931 | – | – | 1.079
298.15 K, m1 = 0.6173 | – | 1540.9 | –
298.15 K, m1 = 0.896 | – | 1563 | –
298.15 K, m1 = 0.9898 | – | 1570.8 | 1.232
298.15 K, m1 = 1.262 | – | 1590 | 1.366
298.15 K, m1 = 1.525 | – | 1611.1 | –
298.15 K, m1 = 1.827 | – | 1637.3 | 1.662
298.15 K, m1 = 2.131 | – | 1660.5 | 1.842
298.15 K, m1 = 2.493 | – | 1685.3 | –
298.15 K, m1 = 2.584 | – | – | 2.206
298.15 K, m1 = 2.793 | – | 1706.5 | –
298.15 K, m1 = 3.096 | – | – | 2.665
298.15 K, m1 = 3.118 | – | 1728.8 | –
298.15 K, m1 = 3.17 | – | 1736.6 | –
298.15 K, m1 = 3.329 | – | – | 2.921
298.15 K, m1 = 3.501 | – | 1754.6 | –
298.15 K, m1 = 3.704 | – | – | 3.367
298.15 K, m1 = 3.757 | – | 1774.2 | –
298.15 K, m1 = 4.039 | – | – | 3.889
298.15 K, m1 = 4.051 | – | 1786.2 | –
298.15 K, m1 = 4.285 | – | 1800.3 | –
298.15 K, m1 = 4.403 | – | 1806.6 | –
298.15 K, m1 = 4.728 | – | – | 5.349
298.15 K, m1 = 4.883 | – | 1831.8 | –
298.15 K, m1 = 4.907 | – | – | 5.933
298.15 K, m1 = 5.134 | – | 1855.2 | –
298.15 K, m1 = 5.282 | – | – | 7.034
298.2 K, m1 = 5.134 | 1402.9 | – | –
298.5 K, m1 = 4.051 | 1333.6 | – | –
299.15 K, m1 = 0.0145 | 998.05 | – | –
299.35 K, m1 = 0.0528 | 1002.2 | – | –
299.6 K, m1 = 0.3405 | 1031.8 | – | –
299.75 K, m1 = 2.131 | 1196.1 | – | –
299.8 K, m1 = 3.501 | 1298.5 | – | –
299.95 K, m1 = 4.728 | 1377.8 | – | –
300.1 K, m1 = 3.17 | 1280 | – | –
300.15 K, m1 = 4.883 | 1384.4 | – | –
300.3 K, m1 = 4.285 | 1349 | – | –
300.35 K, m1 = 2.493 | 1223.9 | – | –
300.5 K, m1 = 0.9898 | 1095.4 | – | –
300.5 K, m1 = 5.134 | 1401.4 | – | –
300.75 K, m1 = 2.584 | 1232 | – | –
300.75 K, m1 = 4.039 | 1332.1 | – | –
300.85 K, m1 = 4.051 | 1332.2 | – | –
300.9 K, m1 = 0.896 | 1085.9 | – | –
300.95 K, m1 = 0.5931 | 1056.2 | – | –
300.95 K, m1 = 1.262 | 1119.4 | – | –
300.95 K, m1 = 2.793 | 1247.4 | – | –
301 K, m1 = 4.97 | 1390.1 | – | –
301.05 K, m1 = 3.704 | 1311.3 | – | –
301.1 K, m1 = 1.525 | 1142.4 | – | –
301.25 K, m1 = 4.403 | 1355.4 | – | –
301.6 K, m1 = 0.2491 | 1022.3 | – | –
302.1 K, m1 = 3.096 | 1269.1 | – | –
302.1 K, m1 = 3.501 | 1297.2 | – | –
302.25 K, m1 = 2.131 | 1194.8 | – | –
302.25 K, m1 = 3.17 | 1278.7 | – | –
302.3 K, m1 = 4.728 | 1376.3 | – | –
302.4 K, m1 = 4.285 | 1347.6 | – | –
302.55 K, m1 = 0.3405 | 1030.8 | – | –
302.55 K, m1 = 2.493 | 1222.7 | – | –
302.6 K, m1 = 1.827 | 1169.5 | – | –
302.6 K, m1 = 4.883 | 1382.9 | – | –
302.95 K, m1 = 4.039 | 1330.8 | – | –
302.95 K, m1 = 5.134 | 1399.9 | – | –
303.05 K, m1 = 0.0145 | 996.95 | – | –
303.1 K, m1 = 1.694 | 1156.4 | – | –
303.1 K, m1 = 2.584 | 1230.7 | – | –
303.1 K, m1 = 2.793 | 1246.1 | – | –
303.15 K, m1 = 0.0145 | – | 1509.5 | 0.8115
303.15 K, m1 = 0.0528 | – | 1511.9 | 0.825
303.15 K, m1 = 0.2491 | – | 1526.5 | 0.8716
303.15 K, m1 = 0.3405 | – | 1529.9 | –
303.15 K, m1 = 0.5931 | – | – | 0.9679
303.15 K, m1 = 0.6173 | – | 1550.7 | –
303.15 K, m1 = 0.896 | – | 1571.2 | –
303.15 K, m1 = 0.9898 | – | 1578.7 | 1.112
303.15 K, m1 = 1.262 | – | 1596.4 | 1.228
303.15 K, m1 = 1.525 | – | 1617 | –
303.15 K, m1 = 1.827 | – | 1641 | 1.493
303.15 K, m1 = 2.131 | – | 1663.8 | 1.654
303.15 K, m1 = 2.493 | – | 1686.8 | –
303.15 K, m1 = 2.584 | – | – | 1.969
303.15 K, m1 = 2.793 | – | 1708.1 | –
303.15 K, m1 = 3.096 | – | – | 2.38
303.15 K, m1 = 3.118 | – | 1729.1 | –
303.15 K, m1 = 3.17 | – | 1736.9 | –
303.15 K, m1 = 3.329 | – | – | 2.611
303.15 K, m1 = 3.501 | – | 1753.9 | –
303.15 K, m1 = 3.704 | – | – | 2.998
303.15 K, m1 = 3.757 | – | 1772.5 | –
303.15 K, m1 = 4.039 | – | – | 3.462
303.15 K, m1 = 4.051 | – | 1783.6 | –
303.15 K, m1 = 4.285 | – | 1797.4 | –
303.15 K, m1 = 4.403 | – | 1804.5 | –
303.15 K, m1 = 4.728 | – | – | 4.73
303.15 K, m1 = 4.883 | – | 1830.6 | –
303.15 K, m1 = 4.907 | – | – | 5.225
303.15 K, m1 = 4.97 | 1388.7 | – | –
303.15 K, m1 = 5.134 | – | 1842.9 | –
303.15 K, m1 = 5.282 | – | – | 6.141
303.25 K, m1 = 0.0528 | 1001.1 | – | –
303.3 K, m1 = 3.704 | 1309.8 | – | –
303.5 K, m1 = 1.525 | 1141.2 | – | –
303.5 K, m1 = 4.403 | 1353.9 | – | –
303.55 K, m1 = 1.262 | 1118.2 | – | –
303.85 K, m1 = 0.5931 | 1055.1 | – | –
303.9 K, m1 = 0.896 | 1084.7 | – | –
304.15 K, m1 = 0.6173 | 1057.7 | – | –
304.25 K, m1 = 3.096 | 1267.7 | – | –
304.35 K, m1 = 3.501 | 1295.8 | – | –
304.35 K, m1 = 3.757 | 1312.3 | – | –
304.55 K, m1 = 2.131 | 1193.6 | – | –
304.55 K, m1 = 3.118 | 1268.5 | – | –
304.55 K, m1 = 4.285 | 1346.2 | – | –
304.55 K, m1 = 4.728 | 1374.9 | – | –
304.8 K, m1 = 4.883 | 1381.4 | – | –
305 K, m1 = 0.2491 | 1021.1 | – | –
305 K, m1 = 1.827 | 1168.3 | – | –
305.05 K, m1 = 2.493 | 1221.3 | – | –
305.2 K, m1 = 4.051 | 1329.4 | – | –
305.25 K, m1 = 4.039 | 1329.3 | – | –
305.3 K, m1 = 1.694 | 1155.3 | – | –
305.35 K, m1 = 2.584 | 1229.4 | – | –
305.5 K, m1 = 2.793 | 1244.7 | – | –
305.55 K, m1 = 3.704 | 1308.4 | – | –
305.8 K, m1 = 0.9898 | 1093 | – | –
305.85 K, m1 = 0.3405 | 1029.6 | – | –
305.95 K, m1 = 1.525 | 1139.9 | – | –
